The text below walks through data of ChEMBL document CHEMBL5233270, “DYRK1A Inhibitors as Potential Therapeutics for β-Cell Regeneration for Diabetes” (J Med Chem, 2021).

Data set [1] in a line: Volume of distribution at steady state in mouse, po. Particulars: in vivo. Type of data set: ADME.
Data set [2] in a line: AUC (0 to infinity) in mouse at 1 mg/kg, po. Type of data set: ADME, organism-based. Further details: dose 1 mg/kg, route po. The settings on record: in vivo.
In data set [3] the target is Dual specificity protein kinase CLK1/CLK2/CLK4 (Homo sapiens) (UniProt Q9HAZ1+P49759+P49760). Kind of data set: Inhibition of CLK1/2/4 (unknown origin) relative to control. Type of data set: protein assay. Particulars: concentration not given here.
The target in data set [4] is Glycogen synthase kinase-3 beta (Homo sapiens, UniProt P49841). Kind of data set: Inhibition of GSK3beta (unknown origin).
A short description of data set [5]: Selectivity ratio of CC50 for mouse R7T1 cells to ECmin for mouse pancreatic islet cells. Particulars: R7T1 cells (CC50) and pancreatic islet cells (ECmin). In kind it is toxicity.
The nature of data set [6]: Cytotoxicity against mouse R7T1 cells assessed as reduction in cell viability. In kind it is functional.
The nature of data set [7]: Induction of human Pancreatic beta cell proliferation at 50 mg/kg measured after 5 days in presence of EdU incorporation by Cell-Titer Glo assay. Type of data set: functional. Particulars: 120 h.
Data set [8] can be described thus: Synergistic […] activity against human Pancreatic beta cell proliferation in presence of GLP1 at 5 nM by Ki-67 immuno labelling assay. In kind it is functional.
Data set [9] is described as follows: Synergistic […] activity against human Pancreatic beta cell proliferation in NSG mouse model at 0.5 ug/kg by immuno labelling assay. In kind it is functional.
Data set [10] is described as follows: Induction of rat Pancreatic beta cell proliferation at 1 uM assessed as increase in fold chain after 6 days in presence of EdU incorporation by Cell-Titer Glo assay. Type of data set: functional. The settings on record: time 6 day.

Structures are written as SMILES. Bounds are passed on as bounds.

Chain of Dual specificity protein kinase CLK1/CLK2/CLK4 (Homo sapiens) (P49759 whole entry, looked up): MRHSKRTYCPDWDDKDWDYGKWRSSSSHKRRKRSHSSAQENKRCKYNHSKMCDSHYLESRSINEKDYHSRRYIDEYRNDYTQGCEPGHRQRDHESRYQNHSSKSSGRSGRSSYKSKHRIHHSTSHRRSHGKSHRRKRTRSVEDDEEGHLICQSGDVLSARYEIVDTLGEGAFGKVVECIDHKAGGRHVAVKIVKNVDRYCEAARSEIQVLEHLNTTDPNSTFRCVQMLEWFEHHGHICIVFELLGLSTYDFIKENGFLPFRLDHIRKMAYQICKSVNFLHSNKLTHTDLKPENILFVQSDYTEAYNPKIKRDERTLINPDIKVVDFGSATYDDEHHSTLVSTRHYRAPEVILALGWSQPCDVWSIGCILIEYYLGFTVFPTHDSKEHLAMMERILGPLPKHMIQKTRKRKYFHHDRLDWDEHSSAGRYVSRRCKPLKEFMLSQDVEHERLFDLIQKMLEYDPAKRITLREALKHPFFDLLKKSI
Chain of Dual specificity protein kinase CLK1/CLK2/CLK4 (Homo sapiens) (P49760 whole entry, looked up): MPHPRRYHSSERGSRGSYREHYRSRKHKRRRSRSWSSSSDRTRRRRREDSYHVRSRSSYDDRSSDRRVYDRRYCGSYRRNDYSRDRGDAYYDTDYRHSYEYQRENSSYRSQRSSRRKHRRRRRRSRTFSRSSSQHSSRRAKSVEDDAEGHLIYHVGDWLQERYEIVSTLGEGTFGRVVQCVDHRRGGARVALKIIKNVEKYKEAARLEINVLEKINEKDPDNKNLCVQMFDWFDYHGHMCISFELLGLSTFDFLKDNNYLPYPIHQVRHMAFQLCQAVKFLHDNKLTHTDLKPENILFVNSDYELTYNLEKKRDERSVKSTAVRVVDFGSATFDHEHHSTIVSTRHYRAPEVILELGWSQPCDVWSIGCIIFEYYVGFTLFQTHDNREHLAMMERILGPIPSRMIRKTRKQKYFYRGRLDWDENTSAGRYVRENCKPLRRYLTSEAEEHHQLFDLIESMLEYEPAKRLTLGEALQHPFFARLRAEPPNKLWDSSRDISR
Chain of Dual specificity protein kinase CLK1/CLK2/CLK4 (Homo sapiens) (Q9HAZ1 whole entry, looked up): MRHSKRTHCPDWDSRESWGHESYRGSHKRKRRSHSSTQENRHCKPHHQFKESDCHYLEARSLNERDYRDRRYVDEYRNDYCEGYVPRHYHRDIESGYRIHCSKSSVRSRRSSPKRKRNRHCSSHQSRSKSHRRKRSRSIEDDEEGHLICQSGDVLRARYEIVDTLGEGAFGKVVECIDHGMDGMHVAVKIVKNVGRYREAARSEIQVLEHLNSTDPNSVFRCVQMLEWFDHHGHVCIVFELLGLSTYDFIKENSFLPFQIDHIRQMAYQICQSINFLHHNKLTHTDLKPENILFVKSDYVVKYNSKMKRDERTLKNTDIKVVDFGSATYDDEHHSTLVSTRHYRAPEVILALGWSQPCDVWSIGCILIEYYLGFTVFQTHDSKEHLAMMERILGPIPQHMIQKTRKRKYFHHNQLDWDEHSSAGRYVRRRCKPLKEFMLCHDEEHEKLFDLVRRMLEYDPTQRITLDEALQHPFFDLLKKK
Chain of Glycogen synthase kinase-3 beta (P49841 whole entry): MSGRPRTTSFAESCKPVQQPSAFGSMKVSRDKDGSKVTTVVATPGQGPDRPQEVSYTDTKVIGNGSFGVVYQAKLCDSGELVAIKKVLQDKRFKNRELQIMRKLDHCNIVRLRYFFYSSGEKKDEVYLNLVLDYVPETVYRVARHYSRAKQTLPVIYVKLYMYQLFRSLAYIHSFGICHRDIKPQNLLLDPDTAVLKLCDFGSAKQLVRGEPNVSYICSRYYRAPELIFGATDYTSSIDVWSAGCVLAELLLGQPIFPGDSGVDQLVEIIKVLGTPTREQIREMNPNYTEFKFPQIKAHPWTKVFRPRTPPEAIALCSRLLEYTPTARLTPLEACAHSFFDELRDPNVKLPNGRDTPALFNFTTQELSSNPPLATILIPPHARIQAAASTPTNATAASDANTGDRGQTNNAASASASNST

In turn, `CCN1CCN(C(=O)Nc2cc(-c3cn(C4CCOCC4)c4cnccc34)ccn2)CC1` gave a Vdss in data set [1] of 11 L/kg. Moreover, the AUC in data set [2] turned out to be 3.27 µM·h. In data set [3], the inhibition is 90%.

For the compound `COc1ccc2c(c1)[nH]c1c(CO)nccc12`, the IC50 in [4] was greater than 8300 nM.

In the case of `CCOC(=O)c1cnc2ccc(-c3ccncc3)nc2c1N[C@H]1CC[C@H](CN2CCOCC2)CC1`, the selectivity ratio in [5] stood at 143. In addition, in [6], the Emin is 3.3 nM.

In the case of `Nc1ncc(-c2ccccc2)nc1C(=O)Nc1cnccc1N1CCC(C(=O)O)CC1`, the EC50 in data set [7] was 0.76 nM.

On to `CCOC(=O)c1cnc2ccc(-c3cc(Cl)c(O)c(Cl)c3)nc2c1NC1CCN(C)CC1`, for which the selectivity ratio in data set [5] was 117. In addition, in [6], the Emin is on record as 10 nM.

On to `CCOC(=O)c1cnc2ccc(-c3ccncc3)nc2c1N[C@H]1CC[C@H](CN(C)C)CC1`, for which, in data set [5], the selectivity ratio worked out at 259.

With `COc1ccc2c(c1)[nH]c1c(C)nccc12` [HARMINE], the Activity is reported as 5% in data set [8] and 0.8% in data set [9].

In the case of `Nc1ncnc2c1c(I)cn2[C@@H]1O[C@H](CO)[C@@H](O)[C@H]1O` [IODOTUBERCIDIN], the “fold change (FC)” value in [10] was 10.

In the case of `CC(C)Oc1ccc(F)c(-c2cnc(N)c(C(=O)Nc3cnccc3N3CCCC(C(=O)O)C3)n2)c1` (centres undefined), the Emin in data set [6] is on record as less than 100 nM.
